Assays:
blood glucose levels [1] = test: Hypoglycemic effect of oral insulin-loaded NPs in normal rats; format: in vivo, Sprague Dawley rats; conditions: subcutaneous injection
Experimental: Sprague Dawley rats (n=6 per group) were fasted overnight before experiments, but allowed free access to water. The animals were administered Tf-coated NPs and BSA-coated NPs (PEA75) in PBS (1.5 mL per 100 g of body weight), at an insulin dose of 50 U/kg, by oral gavage. Tf-coated NPs were tested with four different formulations, including PEA50 NPs, PEA75 NPs, PLGA-PEA50 NPs, and PLGA-PEA75 NPs. As controls, saline and free insulin (50 U/kg) were administered by oral gavage. One group of animals was administered with insulin solution (2 U/kg) by subcutaneous (SC) injection, which was used for the calculation of relative pharmacological availability (PA %). The blood glucose levels were measured as described above, and the pharmacological availability for different formulations was calculated relative to the SC route. […] All four tested Tf-coated NPs elicited a significant hypoglycemic response, reducing glucose during the first 1-6 hours after administration as shown in Table 3.

blood glucose levels [2] = test: Hypoglycemic effect of oral insulin-loaded NPs in diabetic mice; format: in vivo, BALB/c mice; conditions: subcutaneous injection
Experimental: For the evaluation of in vivo efficacy in diabetic animals, insulin-dependent (type 1) diabetes was induced in male BALB/c mice (Charles River Laboratories) by a single injection of streptozotocin solution ([…]) as previously described (see, e.g., 7. S. Arora, S. K. Ojha, D. Vohora, Global J. Pharmacol. 2009, 3, 81-84). Animals were considered to be diabetic if they had fasting glycemia higher than 16.0 mM one week after the injection. The diabetic mice (n=6 per group) were fasted overnight and then administered different samples by gavage, including saline, free insulin, Tf-coated NPs (PEA75), and BSA-coated NPs (PEA75) (insulin dose of 50 U/kg, 1.5 mL per 100 g of body weight). One group of animals was administered an insulin solution (5 U/kg) by subcutaneous (SC) injection. The blood glucose levels were measured as described above, and the pharmacological availability for different formulations was calculated relative to the SC route.

blood glucose levels [3] = test: Bioactivity of insulin released from NPs, subcutaneous injection; format: in vivo, Sprague Dawley rats; conditions: 2 U/kg subcutaneous, insulin released in PBS 2 hours at 37° C.
Experimental: To study the bioactivity of insulin after the preparation and drug release process, NPs were allowed to release insulin in PBS for 2 hours at 37° C. Then the NPs were isolated from the released insulin by ultra-centrifugation. Sprague Dawley rats (Dashuo Laboratory Animal Center) (n=4 per group) were fasted overnight, and then administered the released insulin (2 U/kg) or original free insulin (2 U/kg) and saline, by subcutaneous injection. Blood glucose levels were measured with the AlphaTRAK blood glucose monitoring system (Abbott).

Substance | AAC (area above the serum glucose concentration curve) (blood glucose levels [1]; 2 U/kg) [%*h] | Tmax (blood glucose levels [1]; 2 U/kg) [min] | PA (relative pharmacological availability) (blood glucose levels [1]; 2 U/kg (reference route)) [%] | AAC (area above the serum glucose concentration curve) (blood glucose levels [2]; 5 U/kg) [%*h] | Tmax (blood glucose levels [2]; 5 U/kg) [min] | PA (relative pharmacological availability) (blood glucose levels [2]; 5 U/kg (reference route)) [%] | Hypoglycemic response of released insulin (blood glucose levels [3])
insulin [Free Insulin] | 92.8 | 30 | 100.0 | 227.5 | 60 | 100.0 | –
released insulin: insulin released from the NPs in PBS for 2 hours at 37° C. and separated by ultra-centrifugation | – | – | – | – | – | – | hypoglycemic response analogous to an equivalent dose of free insulin solution

Reference: patent US11123304B2, “Nanoparticles having poly(ester amide) polymer cores as drug delivery vehicles” (The Brigham and Women's Hospital, Inc., priority 2017, dated 2021)
